Where two headings read alike, the source gives them in different places.
What was measured:
[1] = tested on: ^223Ra transport through caco-2 monolayers; assay: Ion-channel ligand library screen for 223Ra flux through caco-2 monolayers; assay type: cell-based; settings: 20 μM, BL to AP, normalized to treatment-free flux
Description: Caco-2BBe1 (brush border expressing clone of parent Caco-2 line) monolayers, modelling colon tissue, were used. Caco-2 monolayers were utilized for ion-channel ligand library screening (52 compounds) testing epithelial ion-transport activation or blocking of radioactive transfer (see e.g., FIG. 15A). Caco-2 cells were seeded 15 K cells/well in 96 trans-well filter plate and assayed 10 days post-seeding. […] The screening material was sampled at 20 μM per BL well (n=3/molecules).
The monolayers integrity was monitored using a lucifer yellow permeability assay. The fluorescent tracer was loaded in the AP compartment, and fluorescence permeability was read in the BL vial. % Lucifer Yellow Passage (LYp %) was calculated as the percentile ratio of relative Fluorescence Units-535 nm (FU) of the assayed BL over FU of complete transfer in BL well.
Radioactive reading was accomplished sampling AP compartments on Luma plates and reading the dried luminescence using Topcount scintillation counter. […] Averaged drug-assayed measurements (n=3) were normalized to treatment-free flux.

[2] = tested on: human serum proteins; settings: for activity in early protein fractions (5-15 mL), affinity with proteins: 2 h of incubation in serum proteins
Description: Next, the stability of the complex to serum proteins was determined in vitro, simulating the complex biological environment encountered in vivo.
Alternatively, size exclusion chromatography (SEC) was utilized to identify each species in solution. […] Chelated activity % was measured integrating gamma counts of macropa peak (20 mL) over the sum counts of all collected fractions (0-47 mL) (see e.g., FIG. 3E).

[3] = remark: listed apart in the source
Description: The animals were maintained for 20 days with food and water and submitted to blood chemistry analysis (Abaxis Vscan 2) at day 1; 7 and 19 d post-treatment. Weight was monitored for each cohort over 20 days. At the end of the study (day 20 post-treatment), animals were sacrificed and whole limbs and kidneys were harvested for gamma counting and histopathological assessments, respectively.
Kidneys were collected 20 days post-treatment and the tissues were fixed in formalin for 72 h then transferred to saline. Tissues were processed by dehydration, paraffin embedding, and sectioning at 4 μm. Adjacent sections were stained with H&E, PAS and Masson's trichrome.

[4] = 223Ra organ distribution in mice pre-treated with ion-channel modulator; assay type: in vivo, C57/Bl6 mice
Description: Healthy male C57/Bl6 mice were randomized received a combination treatment with intraperitoneal injection of Amiloride (inhibitor, red) or NS-1619 (activator, green) or saline (control, grey) followed by a clinical dose of ^223RaCl2 1 h post-drug administration. Radioactive organ distribution was then measured at 15 min, 1 h and 4 h post ^223Ra treatment. […] Comparing bone uptake, as early as 15 min, osseous absorption is was half for the NS-1619-treated group as compared to the amiloride or the control group.
Male C57Bl/6 aged 10 weeks (n=6 per treated group) were administered intraperitoneally Amiloride (12.5 mg/kg-150 uL 2% v/v DMSO) or NS-1619 (1 mg/kg-150 uL 2% v/v DMSO) or saline 1 h prior ^223RaCl2 i.v. administration (3.7 KBq/100 uL buffer). Animals were kept awake between each injection. 15 min; 1 h and 4 h post ^223Ra administration: blood; spleen; kidney; stomach; duodenum; jejunum; ileum; cecum; colon; muscle; fat and bone tibia were harvested, weighed and gamma counted. Gamma counting was conducting utilizing a Perkin Elmer Wizard2 counter with readings of energies set 150-350 KeV, with 10 min reading for each sample. Standard corresponding to 10% of injected activity were measured as well; allowing for the calculation of % Injected activity (% IA) normalized to tissue weight (% IA/g).

[5] = tested on: metastatic castration-resistant prostate cancer; settings: mCRPC patients, vs. 11.9 months in control patients; cited from earlier work
[6] = tested on: colon and duodenum; settings: mice, uptake in the intestine
Description: Animals were fasted and supplemented with Golytely (24 g/350 mL) 2 h prior injections and sacrificed 24 h post administration. Sections (1 cm) of each gastrointestinal region from the duodenum, jejunum, ileum to the colon were rapidly harvested. GI specimen were set onto previously partially solidified OCT gel block, then fully coated with OCT and flash frozen. Gastrointestinal transversal sectioning was conducted utilizing Leica microtome, 10 μm sections. Fresh frozen sections were collected on tape and stored at −20° C.
Gastrointestinal tissue sections were fixed immerging tapes in 10% paraformaldehyde (PFA) for 15 min followed by a washing with PBS 1×. Following fixation, tissues were mounted directly with DAPI and/or TRITC-Phalloidin mounting media under cover slip ready for imaging.
A second fixations was proceeded using 10% PFA and washed with deionized water. Tissues were then reacted using buffer reaction mixtures from Click-iT Plus TUNEL assay. Positive control were conducted, treated similarly with an additional DNAase treatment. Final counterstaining was conducted using Hoechst33342 (1:5000) before mounting taped tissue specimen under cover slip with 30% aqueous glycerol.
For γH2AX staining, tissues were fixed and submitted to blocking serum reagent, 1 h at room temperature. […]

[7] = tested on: human duodenal enteroid monolayers
Description: An in vitro patient-derived organoid model of functional gut epithelium was developed by plating human duodenal enteroid monolayers on a permeable trans-well scaffold.
Intestinal cellular models—human duodenal enteroids and caco-2 monolayers—were grown on a trans-well polymeric filter plate divided in a lower and an upper incubation compartments modeling basolateral and apical side of the epithelium, respectively.
Human duodenal enteroids (see e.g., FIG. 13A) were reconstituted and grown from healthy patient-derived cellular crypts tissue samples. Both differentiated (DF) and undifferentiated (UDF) conditions were tested. DF monolayers were induced by removal of Wnt3A and R-spondin factors from the incubation media, as described previously.
DF or UDF duodenal enteroids were set and grown on 24-transwell plates for 2 weeks until cell confluency was reached, leading to closed monolayer membranes. […] Temperature-dependent transport 37° C. versus 4° C. was tested on UDF enteroids (see e.g., FIG. 13B). DF versus UDF enteroids phenotypes transfer were compared, selecting monolayers with similar range of TEER (1200<TEER<1800 D/m) (see e.g., FIG. 13C).

[8] = after administration to mice
Description: The whole gastrointestinal tracts from stomach to rectum were rapidly harvested and placed directly on plastic wraps set over autoradiographic phosphor screens for 90 min exposure in the dark. The autoradiographic prints were read on Cyclone Phosphor Imager (Packard), 300 DPI confocal laser stimulation; 16-bit ADC; utilizing FIJI processing with median filter. For FIJI readings of the autoradiographic files, data were converted to 32-bit format utilizing “square and scale n16” plug in. Radioactive signal intensity was translated into dynamic light units (see e.g., FIG. 12A). Signal intensity was plotted over the GI tract length from the stomach (start=0) to the cecum (˜200 mm) comparing various time points (see e.g., FIG. 12B). Results were comprised as well into profiles curves per organ region of interests including: stomach, cecum or the whole intestinal tract (see e.g., FIG. 12C).

[9] = aqueous solution, physiological pH, Ba2+ complex; cited from earlier work
[10] = human serum proteins, 37° C., 12 days

With `C/C=C(/C)C(=O)O[C@H]1C(C)=C2[C@H]([C@@H]1OC(=O)CCCCCCC)[C@@](C)(OC(C)=O)C[C@H](OC(=O)CCC)[C@@]1(O)[C@H]2OC(=O)[C@@]1(C)O` [thapsigargin] the “effect on 223Ra transport through monolayers” value (“effect” below) [1] was “does not increase transport”.

With `O=C([O-])c1cccc(CN2CCOCCOCCN(Cc3cccc(C(=O)[O-])n3)CCOCCOCC2)n1.[223Ra+2]` [[(^223Ra)macropa]] the “activity in early protein fractions (5-15 mL), affinity with proteins” value [2] was “no registered activity in the early fractions”, the “223Ra retained (chelated activity) after serum protein challenge” value [2, 10] was over 90% and the “decomplexation after serum protein challenge” value [2, 10] was 10%. For the same compound, the “fold lower bone uptake than free 223Ra” value (15 min and 24 h p.i., FIG. 4C legend) was 10-25 fold, the “fold lower bone uptake compared to 223RaCl2 in citrate” value (15 min p.i.) was 10 fold and the “fold lower bone uptake compared to 223RaCl2 in citrate” value (24 h p.i.) was 20 fold. For the same compound, the bone uptake (24 h p.i., macropa study) was 1.6±0.2 % IA/g, the excretion route (animal models, compared to bare ion (Xofigo)) was “quantitatively excreted via renal filtration” and the “accumulation in the spleen and the gut” value (compared with 223RaCl2) was “prevented accumulation”. The “fold higher signal in equal volume of urine (bladder) than 223RaCl2 group” value (early time point (15 min)) was 300 fold and the “complex status in urine after excretion (SEC)” value (urine samples of chelator-administered group) was “intact”.

With `N=C(N)NC(=O)c1nc(Cl)c(N)nc1N` [Amiloride] the “increase in 223Ra bone-homing (whole legs gamma-counted) versus Radium-223 alone” value ([3]; combination treatment, 20 days following treatment, P=0.0283) was 15%, the “blood chemistry profile, Radium versus Radium/Amiloride cohorts” value ([3]; day 1 to day 19 post-treatment) was “no profile difference” and the “upper GI radioactive uptake (combined % IA of stomach, duodenum, jejunum)” value ([4]; 15 min p.i.) was “lower radioactive content”. For the same compound, the “upper GI radioactive uptake (combined % IA of stomach, duodenum, jejunum)” value ([4]; 4 h p.i.) was “No difference”, the “223Ra sequestration in bone, times higher versus control or NS-1619” value ([4]; 4 h p.i., modulator i.p. 1 h before 223RaCl2) was “over 1.5 times” and the “area under the curve of bone uptake versus 223RaCl2 alone” value ([4]; combination with 223RaCl2, FIG. 17) was “significantly larger”. The “effect” value [1] was “inhibitor”.

For `O=c1[nH]c2cc(C(F)(F)F)ccc2n1-c1cc(C(F)(F)F)ccc1O` [NS-1619], the “upper GI radioactive uptake (combined % IA of stomach, duodenum, jejunum)” value ([4]; 1 h p.i.) was “significantly higher”, the “upper GI radioactive uptake (combined % IA of stomach, duodenum, jejunum)” value ([4]; 4 h p.i.) was “No difference” and the “effect” value [1] was “activator”.

For `[Cl][223Ra][Cl]` [^223RaCl2, Radium-223 Dichloride], the “activity in early protein fractions (5-15 mL), affinity with proteins” value [2] is listed as “no registered activity in the early fractions”, the median survival [5] is listed as 14.9 months and the “apoptosis and DNA damage in cells of the colon and duodenum” value [6] is listed as “increased cell apoptosis and DNA damage”. The “223Ra transport, differentiated versus undifferentiated enteroids” value ([7]; basolateral to lumen compartment, P<0.05) was “superior capacity to transport”, the “transport of radioactivity, 37° C. versus 4° C.” value ([7]; undifferentiated enteroids, basolateral to apical) was “temperature-dependent active transport” and the bone uptake (24 h p.i., macropa study) was 22±1 % IA/g. For the same compound, the splenic uptake (24 h p.i., macropa-β-alanine study) was 5.52+/−2.3 % IA/g, the bone uptake (24 h p.i., macropa-β-alanine study, naive skeletally mature mice) was 9.7±1.66 % IA/g and the “small bowel and stomach accumulation” value [8] was “observed within minutes”.

In the case of `O=C([O-])c1cccc(CN2CCOCCOCCN(Cc3cccc(C(=O)[O-])n3)CCOCCOCC2)n1.[Ba+2]` [[(Ba)macropa]], the “stability constant (log K′ML,pH7.4)” value [9] is listed as 10.74.

From US20220152228A1, “COMPOSITIONS AND METHODS FOR RADIOTHERAPY USING CHELATED RADIOTHERAPEUTIC AGENTS AND NON-TARGET TISSUE BLOCKADE” (Washington University, priority 2019, published 2022)
